Target: T1, human CCR6 (Homo sapiens, UniProt P51684)
T1 construct: expressed in transfected cells; host or cells: Ba/F3 cells (murine pro-B line), hCCR6-transfected, CMV promoter, sodium butyrate induction
T1 sequence (P51684 1-374): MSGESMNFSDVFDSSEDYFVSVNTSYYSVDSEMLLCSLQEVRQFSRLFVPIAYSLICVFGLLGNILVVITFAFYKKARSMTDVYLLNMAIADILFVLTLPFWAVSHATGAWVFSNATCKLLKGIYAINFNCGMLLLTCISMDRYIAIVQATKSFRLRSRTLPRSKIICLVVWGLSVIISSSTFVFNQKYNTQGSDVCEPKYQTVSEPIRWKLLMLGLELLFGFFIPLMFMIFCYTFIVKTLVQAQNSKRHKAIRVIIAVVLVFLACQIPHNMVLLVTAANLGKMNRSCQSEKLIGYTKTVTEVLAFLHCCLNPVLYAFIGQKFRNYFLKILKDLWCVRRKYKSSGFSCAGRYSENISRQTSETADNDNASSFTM
Test: Migration (chemotaxis) assay, hCCR6-transfected Ba/F3 cells toward CCL20
Format: cell-based
Conditions: hCCR6-transfected Ba/F3 cells in human serum; recombinant human CCL20 10 nM; 37° C. 45 minutes; read-out: Potency (IC50 value in the migration assay)
Source text: A chemotaxis assay can be used to determine the efficacy of potential receptor antagonists at blocking the migration mediated through chemokine receptors, such as CCR6. This assay is routinely performed using the ChemoTX® microchamber system with a 5-μm pore-sized polycarbonate membrane. Chemokine receptor-expressing cells are required for such an assay. In this case, Ba/F3 cells (Palacios et al., Nature, 309:126, 1984) transfected with the gene for human CCR6 under control of the CMV promotor were used. To begin such an assay, hCCR6-transfected Ba/F3 cells are first grown for 24 hr in medium supplemented with sodium butyrate, which increases CCR6 transcription via the CMV promotor. The prepared Ba/F3 cells, are collected by centrifugation at 400×g at room temperature, then suspended at 4 million/ml in human serum. The compound being tested is serially diluted from a maximum final concentration of 10 μM (or an equivalent volume of its solvent (DMSO)) and is then added to the cell/serum mixture. Separately, recombinant human CCL20 (MIP-3α/LARC) at its EC50 concentration (10 nM) is placed in the lower wells of the ChemoTX® plate. The 5-μm (pore size) polycarbonate membrane is placed onto the plate, and 20 μL of the cell/compound mixture is transferred onto each well of the membrane. The plates are incubated at 37° C. for 45 minutes, after which the polycarbonate membranes are removed and 5 μl of the DNA-intercalating dye CyQUANT (Invitrogen, Carlsbad, CA) is added to the lower wells. The amount of fluorescence, corresponding to the number of migrated cells, is measured using a Spectrafluor Plus plate reader (TECAN, San Jose, CA).

Row | IC50 [nM] | SMILES
1 | 100 to 10000 | O=S(=O)(c1ccc(N2CCC(O)CC2)c(F)c1)N1CCC(Nc2ccc(C(F)(F)F)cn2)CC1 [Example 1.208]
2 | < 5 | O=C1NC(=O)C2(CCN(c3ccc(S(=O)(=O)N4CCC(Nc5ccc(C(F)(F)F)cn5)CC4)cc3)CC2)N1 [Example 1.151]
3 | < 5 | O=C1Cc2cc(-c3ccc(S(=O)(=O)N4CCC(Nc5ccc(C(F)(F)F)cn5)CC4)cc3)ccc2N1 [Example 1.076]
4 | < 5 | COC(=O)c1cc(-c2ccc(S(=O)(=O)N3CCC(Nc4ccc(C(F)(F)F)cn4)CC3)cc2)cc2c1NC(=O)C2 [Example 1.027]
5 | 5 to 100 | CC(C)(C)[Si](C)(C)OCCN1Cc2ccc(-c3ccc(S(=O)(=O)N4CCC(Nc5ccc(C(F)(F)F)cn5)CC4)cc3)cc2C1=O [Example 1.038]
6 | 100 to 10000 | O=C1CCCCN1c1ccc(S(=O)(=O)N2CCC(Nc3ccc(C(F)(F)F)cn3)CC2)cc1 [Example 1.227]
7 | < 5 | O=C1NCCc2cc(-c3ccc(S(=O)(=O)N4CCC(Nc5ccc(C(F)(F)F)cn5)CC4)cc3)ccc21 [Example 1.075]
8 | < 5 | NC(=O)CC1CCN(c2ccc(S(=O)(=O)N3CCC(Nc4ccc(C(F)(F)F)cn4)CC3)cc2)CC1 [Example 1.155]
9 | 100 to 10000 | NC(=O)N1CCc2nc(-c3ccc(S(=O)(=O)N4CCC(Nc5ccc(C(F)(F)F)cn5)CC4)cc3)sc2C1 [Example 1.102]
10 | 5 to 100 | CC(C)(C)OC(=O)NCCN1C(=O)C2(CC2)c2cc(-c3ccc(S(=O)(=O)N4CCC(Nc5ccc(C(F)(F)F)cn5)CC4)cc3)cnc21 [Example 1.004]
11 | 100 to 10000 | O=S(=O)(c1ccc(N2CCC(c3nnn[nH]3)CC2)cc1)N1CCC(Nc2ccc(C(F)(F)F)cn2)CC1 [Example 1.128]
12 | 5 to 100 | O=S(=O)(c1ccc(N2CCC(O)CC2)cc1)N1CCC(Nc2ccc(C(F)(F)F)cn2)CC1 [Example 1.156]
13 | 100 to 10000 | O=S(=O)(c1ccc(N2CCC(c3cnc[nH]3)CC2)cc1)N1CCC(Nc2ccc(C(F)(F)F)cn2)CC1 [Example 1.130]
14 | 5 to 100 | O=S(=O)(c1ccc(N2CCc3[nH]ncc3C2)cc1)N1CCC(Nc2ccc(C(F)(F)F)cn2)CC1 [Example 1.214]
15 | < 5 | NC(=O)N1Cc2ccc(-c3ccc(S(=O)(=O)N4CCC(Nc5ccc(C(F)(F)F)cn5)CC4)cc3)cc2C1 [Example 1.054]
16 | 100 to 10000 | NC(=O)CC1CCCN(c2ccc(S(=O)(=O)N3CCC(Nc4ccc(C(F)(F)F)cn4)CC3)cc2)C1 (centres unmarked) [Example 1.138]
17 | < 5 | O=C1CC2(CCN(c3ccc(S(=O)(=O)N4CCC(Nc5ccc(C(F)(F)F)cn5)CC4)cc3)CC2)CC(=O)N1 [Example 1.152]
18 | 5 to 100 | Cc1n[nH]c2ccc(-c3ccc(S(=O)(=O)N4CCC(Nc5ccc(C(F)(F)F)cn5)CC4)cc3)cc12 [Example 1.094]

Second part, the compound before the results:

Row | SMILES | IC50 [nM]
19 | NC(=O)CC1CN(c2ccc(S(=O)(=O)N3CCC(Nc4ccc(C(F)(F)F)cn4)CC3)cc2)C1 [Example 1.144] | 100 to 10000
20 | N#Cc1c(N)[nH]c2ccc(-c3ccc(S(=O)(=O)N4CCC(Nc5ccc(C(F)(F)F)cn5)CC4)cc3)cc12 [Example 1.099] | < 5
21 | O=c1[nH]c2ccc(-c3ccc(S(=O)(=O)N4CCC(Nc5ccc(C(F)(F)F)cn5)CC4)cc3)cc2n1C1CC1 [Example 1.052] | 5 to 100
22 | Nc1nc2cc(-c3ccc(S(=O)(=O)N4CCC(Nc5ccc(C(F)(F)F)cn5)CC4)cc3)ccc2[nH]1 [Example 1.107] | 5 to 100
23 | CC(=O)NCCn1cc(C#N)c2cc(-c3ccc(S(=O)(=O)N4CCC(Nc5ccc(C(F)(F)F)cn5)CC4)cc3)cnc21 [Example 1.011] | < 5
24 | Nc1n[nH]c2ccc(-c3ccc(S(=O)(=O)N4CCC(Nc5ccc(C(F)(F)F)cn5)CC4)cc3)cc12 [Example 1.112] | < 5
25 | CC(C)(C)OC(=O)N[C@@H]1CCCN(c2ccc(S(=O)(=O)N3CCC(Nc4ccc(C(F)(F)F)cn4)CC3)cc2)C1 [Example 1.213] | 100 to 10000
26 | CC(=O)N1CCC2(CC1)C(=O)Nc1ccc(-c3ccc(S(=O)(=O)N4CCC(Nc5ccc(C(F)(F)F)cn5)CC4)cc3)cc12 [Example 1.026] | 5 to 100
27 | CC1(C)Oc2ccc(-c3ccc(S(=O)(=O)N4CCC(Nc5ccc(C(F)(F)F)cn5)CC4)cc3)cc2NC1=O [Example 1.031] | 5 to 100
28 | NC(=O)c1cc2cc(-c3ccc(S(=O)(=O)N4CCC(Nc5ccc(C(F)(F)F)cn5)CC4)cc3)ccc2[nH]1 [Example 1.098] | 5 to 100
29 | O=S(=O)(c1ccc(-c2nc3c(s2)CNCC3)cc1)N1CCC(Nc2ccc(C(F)(F)F)cn2)CC1 [Example 1.106] | 100 to 10000
30 | N#Cc1c(N)[nH]c2ccc(-c3ccc(S(=O)(=O)[C@H]4CC[C@H](Nc5ccc(C(F)(F)F)cn5)CC4)cc3)cc12 [Example 1.070] | < 5
31 | N#Cc1cc2cc(-c3ccc(S(=O)(=O)N4CCC(Nc5ccc(C(F)(F)F)cn5)CC4)cc3)ccc2[nH]1 [Example 1.113] | 5 to 100
32 | Nc1n[nH]c2ncc(-c3ccc(S(=O)(=O)N4CCC(Nc5ccc(C(F)(F)F)cn5)CC4)cc3)nc12 [Example 1.017] | 5 to 100
33 | N#Cc1c[nH]c2ncc(-c3ccc(S(=O)(=O)[C@H]4CC[C@H](Nc5ccc(C(F)(F)F)cn5)CC4)cc3)cc12 [Example 1.071] | < 5
34 | CN(C)CCn1cc(C#N)c2cc(-c3ccc(S(=O)(=O)N4CCC(Nc5ccc(C(F)(F)F)cn5)CC4)cc3)cnc21 [Example 1.001] | 5 to 100
35 | CC(=O)N[C@H]1CCN(c2ccc(S(=O)(=O)N3CCC(Nc4ccc(C(F)(F)F)cn4)CC3)cc2)C1 [Example 1.192] | 100 to 10000
36 | O=S(=O)(c1ccc(N2CCN3C[C@H](O)C[C@H]3C2)cc1)N1CCC(Nc2ccc(C(F)(F)F)cn2)CC1 (racemic) [Example 1.178] | 100 to 10000
37 | N#Cc1c[nH]c2ccc(-c3ccc([S@](=N)(=O)N4CCC(Nc5ccc(C(F)(F)F)cn5)CC4)cc3)cc12 [Example 1.103] | 5 to 100
38 | O=C1Cc2cc(-c3ccc(S(=O)(=O)N4CCC(Nc5ccc(C(F)(F)F)cn5)CC4)cc3)cnc2N1 [Example 1.073] | < 5
39 | CS(=O)(=O)NC1CCN(c2ccc(S(=O)(=O)N3CCC(Nc4ccc(C(F)(F)F)cn4)CC3)cc2)CC1 [Example 1.206] | 5 to 100
40 | CC(C)(C)OC(=O)N[C@H]1CCCN(c2ccc(S(=O)(=O)N3CCC(Nc4ccc(C(F)(F)F)cn4)CC3)cc2)C1 [Example 1.219] | 100 to 10000
41 | N#Cc1ccc2nc(-c3ccc(S(=O)(=O)N4CCC(Nc5ccc(C(F)(F)F)cn5)CC4)cc3)sc2c1 [Example 1.060] | 5 to 100
42 | N#Cc1cn(CCO)c2ncc(-c3ccc(S(=O)(=O)N4CCC(Nc5ccc(C(F)(F)F)cn5)CC4)cc3)cc12 [Example 1.029] | < 5
43 | N#Cc1cc2ccc(-c3ccc(S(=O)(=O)N4CCC(Nc5ccc(C(F)(F)F)cn5)CC4)cc3)cc2[nH]1 [Example 1.079] | 5 to 100
44 | Nc1n[nH]c2ncc(-c3ccc(S(=O)(=O)N4CCC(Nc5ccc(C(F)(F)F)cn5)CC4)cc3)cc12 [Example 1.068] | < 5
45 | NC(=O)C1(C2CCN(c3ccc(S(=O)(=O)N4CCC(Nc5ccc(C(F)(F)F)cn5)CC4)cc3)CC2)CC1 [Example 1.124] | 5 to 100
46 | Cn1nc(N)c2cc(-c3ccc(S(=O)(=O)N4CCC(Nc5ccc(C(F)(F)F)cn5)CC4)cc3)ccc21 [Example 1.046] | < 5
47 | CC(=O)NCCC1CCN(c2ccc(S(=O)(=O)N3CCC(Nc4ccc(C(F)(F)F)cn4)CC3)cc2)CC1 [Example 1.126] | 5 to 100
